The values below come from paper PMC8225008, “Development of Non-Ethoxypropanoic Acid Type Cryptochrome Inhibitors with Circadian Molecular Clock-Enhancing Activity by Bioisosteric Replacement” (Pharmaceuticals, 2021).

The test concerns the target T1, hCRY2 (Homo sapiens, UniProt Q49AN0).
T1 construct: GST; purchased MyBioSource; host or cells: baculovirus expression system
T1 sequence (Q49AN0 1-593): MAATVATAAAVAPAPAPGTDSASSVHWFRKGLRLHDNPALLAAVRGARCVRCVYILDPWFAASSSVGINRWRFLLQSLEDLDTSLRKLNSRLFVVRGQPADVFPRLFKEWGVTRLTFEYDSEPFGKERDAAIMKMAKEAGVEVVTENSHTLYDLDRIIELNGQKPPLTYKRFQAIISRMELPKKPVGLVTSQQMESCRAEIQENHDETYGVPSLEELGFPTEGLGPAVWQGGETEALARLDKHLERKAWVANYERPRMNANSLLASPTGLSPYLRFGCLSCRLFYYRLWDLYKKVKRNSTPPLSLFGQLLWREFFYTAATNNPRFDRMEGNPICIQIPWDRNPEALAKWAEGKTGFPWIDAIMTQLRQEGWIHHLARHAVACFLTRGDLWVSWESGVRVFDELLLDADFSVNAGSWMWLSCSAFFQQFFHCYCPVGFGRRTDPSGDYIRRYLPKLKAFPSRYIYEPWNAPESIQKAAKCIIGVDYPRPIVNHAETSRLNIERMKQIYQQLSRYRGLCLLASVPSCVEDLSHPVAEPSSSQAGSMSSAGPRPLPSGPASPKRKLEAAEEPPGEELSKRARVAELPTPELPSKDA
Put plainly: Surface plasmon resonance, CRY2. Format: binding. The note with it: SPR, His-tagged CRY2, Langmuir 1:1 model. Here is the method: We used a ProteOn XPR36 system (Bio-Rad, Hercules, CA, USA) equipped with a HTE sensor chip (high capacity tris-NTA for histidine-tagged […] capture, Bio-Rad) for surface plasmon resonance analyses. Purified target proteins (6xHis- and GST-tagged hCRY1 and hCRY2) were prepared by a baculovirus expression system (MyBioSource, San Diego, CA, USA). Phosphate buffered saline (PBS) plus 0.005% Tween 20 was used as the running buffer. The 6xHis-hCRY1 and 6xHis-hCRY2 proteins were immobilized onto separate channels of a HTE chip by injecting 210 μL protein sample (2.0 μg/mL) into flow cells (30 μL/min) to allow saturation. Serially diluted compound 2d samples (50–800 μM) were prepared in 4% DMSO in TBS-T buffer. […] Recorded resonance units (RU) were normalized and plotted against chemical concentration. […]
The EC50 values for luciferase reporter assay were calculated based on a logistic four-parametric equation using the mean values of intrinsic activation (SigmaPlot 10.0; Systat Software Inc., San Jose, CA, USA). The IC50 and t1/2 values for the cytochrome P450 inhibition assay and metabolic stability test were calculated by WinNonlin software (Pharsight, Mountain View, CA, USA). Pharmacokinetic parameters were calculated using non-compartmental analysis (WinNonlin v.8.3; Pharsight, Mountain View, CA, USA). […]
A general note: In SPR one partner is held on a chip, and binding of the other changes the refractive index at the surface.

pKd: −log10 of the molar value.

`CC(=NOCc1ccc([N+](=O)[O-])cc1)c1cccc(OCC(=O)O)c1` [Compound 2d, 2-(3-(1-(((4-nitrobenzyl)oxy)imino)ethyl)phenoxy)acetic acid]: the pKd (in general, −log10 of the Kd, conventionally taken in molar units) was 3.42.
